Results published in patent US8772243B2, “Methods for predicting the response to anti-cancer treatment with an agonist of TLR7 or an agonist of TLR8” (Inserm (Institut National de la Sante et de la Recherche …, priority 2008, dated 2014).

Experiments:
Type in all cases: cell-based, human
A549 cells [1] = assay: Percentage of dead cells by Trypan blue exclusion; details: 24 h
Procedure: (§1) FIG. 4 TLR7 and 8 induce survival of lung tumor cells. (A) A549 cells were unstimulated, stimulated with loxoribine (10 μg/ml), Poly U (10 μg/ml), or Gardiquimod(10μg/ml) and incubated with Alamar blue for 10 days. Reduction of Alamar blue was then determined by spectrophotometry at 570 and 600 nm. The percentage of reduced Alamar blue was calculated as described by the manufacturer. A549 cells were unstimulated or stimulated with loxoribine, Poly U, Gardiquimod, etoposide, or cycloheximide for 24 h. (B) The percentage of dead cells was determined by Trypan blue exclusion. (C) The DNA content was measured by IP staining after RNAse A treatment. The percentages indicate the proportion of subdiploid (G0/G1) and […]. Data represent mean values±SD from 3 independent experiments (*p<0.05; ** p<0.01, Student test). (D) A549 cells were cultured for 6 h in the presence of loxoribine, Poly U, or Gardiquimod, and the expression of Bcl-2 was assayed using Taq Man Low Density Array technology. The ΔCT values for Bcl-2 expression were calculated by subtraction of the CT value obtained for the 18S housekeeping gene. The ΔΔCT values were obtained by subtraction of ΔCT values for unstimulated cells from those obtained for stimulated cells. The fold increase (arbitrary unit) was obtained by 2^−ΔΔCT.

A549 cells [2] = assay: Cell cycle analysis (propidium iodide staining); details: PI staining
Procedure: as §1
A549 cells were cultured in the presence of loxoribine, Poly U, Gardiquimod, etoposide, or cycloheximide. After 48 h, the cells were harvested, washed in cold PBS, and fixed with 2 ml of 70% cold ethanol in PBS for 2 h at 4° C. After centrifugation, the supernatant was removed and the pellet was rinsed with 0.5% PBS Tween. It was then incubated with […] of RNAse A and 50 μg of propidium iodide in PBS. Propidium iodide staining was determined with a FACScalibur cytometer.

[3] = tested on: 1549, H1355 and SK-MES cells; assay: Chemoresistance by colony formation assay; details: concentration added on day 12 of colony formation assay
Procedure: Alternatively, chemoresistance was assessed by the colony formation assay. In this assay, 1549, H1355 and SK-MES cells were seeded in 6-well plates (500 cells per well) and incubated for 15 days at 37° under 5% CO2. The cells were left unstimulated or stimulated 100 μM Loxoribine or with 10 μg/ml single-stranded polyU RNA (InvivoGen) on days 0, 3, 6 and 9. On day 12, different anti-cancer agents were added at the respective LD50 (cisplatin and carboplatin 100 μM, navelbine 50 μM, doxorubicine 2 nM). On day 15, the wells ware washed with PBS, and stained with 6% (vol/vol) glutaraldehyde, 0.5% (wt/vol) crystal violet in water for 30 minutes. The cells were washed and the colonies of more than 50 cells counted. Cell survival was calculated as follows: number of colonies after chemotherapy/number of cells seeded on day 0×plating efficiency, where the plating efficiency is number of colonies/number of cells seeded.

[4] = tested on: IκBα (NF-κB activation) in A549 cells; assay: Western blot of IκBα phosphorylation and degradation (NF-κB activation) in A549 cells; details: TNF-α 10 ng/ml
Procedure: FIG. 3 TLR7 and TLR8 lead to IκBα phosphorylation, but not degradation. A549 cells were untreated or treated with TNF-α (10 ng/ml) (A, B), loxoribine (10 μg/ml) (C, D), or Poly U (10 μg/ml) (E, F) for the indicated periods of time. The cell lysates were analyzed by immunoblot with anti-phospho-specific IκBα, anti-IκBα and anti-actin antibodies (A, C, E). Quantification of the bands was realized using Image J software (B, D, F). Histograms represent the intensity of each band observed in the blots at the indicated time point and are expressed in arbitrary units normalized to actin intensity (relative intensity) both for phospho-IκBα and IκBα. Results are representative of three independent experiments.
A549 cells (1.10^6 cells) were starved for 4 hours in medium containing 2% FCS, and then stimulated with loxoribine, PolyU, or TNFα (10 ng/ml) for different periods of time as indicated. Cells were lysed in 50 mM Tris-HCl, pH 7.5, 150 mM NaCl, 2 mM EDTA, 0.5% triton X100, 2 mM Na3VO4, 10 mM NaF, and 10 mM sodium pyrophosphate supplemented with a complete protease inhibitor cocktail (Boehringer, Paris, France). Protein contents in the cell lysates were quantified using the quick start Bradford protein assay kit (Biorad, Marnes-La-Coquette, France) to ensure that all samples contained similar amounts of protein. Proteins (30 μg) were resolved in 10% Tris-glycine polyacrylamide gels (Invitrogen, Cergy Pontoise, France) and transferred to PVDF immobilon-P membranes (Millipore, Molsheim, France). Blots were probed with monoclonal antibody against phospho-IκBα (Cell Signaling Technology, Danvers, USA), total IκBα, and actin (Santa Cruz, Le Perray en Yvelines, France).
In order to determine if the TLR7 and 8 expressed by lung tumor cell lines were able to induce intracellular signaling pathways, we studied NF-κB activation in response to stimulation with TNFα, loxoribine (homodimeric TLR7 ligand), or Poly U (homodimeric TLR8 ligand). […] In contrast TLR7 or 8 stimulation led to atypical NF-κB activation. […] Furthermore, we also observed that the kinetics of IκBα phosphorylation were dependent on the stimulus. On the one hand, TNFα stimulation induced two waves of IκBα phosphorylation; the first one after ten minutes was associated with IκBα degradation, and the second one after sixty minutes was not associated with IκBα degradation. On the other hand, we observed that TLR stimulation induced only a phosphorylation of IκBα, with a maximum phosphorylation obtained after thirty minutes without degradation of IκBα.

| Compound | increase in the percentage of dead cells (positive controls) (A549 cells [1]) [fold] | proportion of cells in G0/G1 or G2/M phases versus unstimulated cells (A549 cells [2]) | also measured |
| --- | --- | --- | --- |
| C[C@@H]1C[C@@H]([C@H](O)CC2CC(=O)NC(=O)C2)C(=O)[C@@H](C)C1 [cycloheximide] | 2.5 | significant reduction in the percentage of cells in G0/G1 or G2/M |  |
| COc1cccc2c1C(=O)c1c(O)c3c(c(O)c1C2=O)C[C@@](O)(C(=O)CO)C[C@@H]3O[C@H]1C[C@H](N)[C@H](O)[C@H](C)O1 [doxorubicine] |  |  | LD50 [3]: 2 nM |
| COc1cc([C@@H]2c3cc4c(cc3[C@@H](O[C@@H]3O[C@@H]5CO[C@@H](C)O[C@H]5[C@H](O)[C@H]3O)[C@H]3COC(=O)[C@H]23)OCO4)cc(OC)c1O [etoposide] | 2.5 | significant reduction in the percentage of cells in G0/G1 or G2/M |  |
| TNFα |  |  | first wave of IκBα phosphorylation, associated with IκBα degradation [4]: ten; second wave of IκBα phosphorylation, not associated with IκBα degradation [4]: sixty; IκBα degradation / type of NF-κB activation ([4]; loxoribine or Poly U 10 μg/ml): IκBα phosphorylation and degradation |
